From ChEMBL document CHEMBL3091431, “Aminopyridyl/Pyrazinyl Spiro[indoline-3,4'-piperidine]-2-ones As Highly Selective and Efficacious c-Met/ALK Inhibitors” (ACS Med Chem Lett, 2013)

Assays:
[1] = target: Hepatocyte growth factor receptor (Homo sapiens, UniProt P08581); assay: Inhibition of c-Met phosphorylation in human […] cells after 1 hr by western blotting; assay type: cell-based
[2] = Cmax in BALB/c mouse at 20 mg/kg, po; assay type: ADME, organism-based; design: dose 20 mg/kg, route oral; settings: in vivo
Mus musculus [3] = assay: Bioavailability in BALB/c mouse at 5 mg/kg, iv; assay type: ADME, organism-based; settings: in vivo
[4] = AUC (0 to infinity) in BALB/c mouse at 5 mg/kg, iv; assay type: ADME, organism-based; design: time infinity, dose 5 mg/kg, route intravenous; settings: plasma
[5] = Cmax in BALB/c mouse at 5 mg/kg, iv; assay type: ADME, organism-based; design: dose 5 mg/kg, route intravenous; settings: in vivo
[6] = target: T1, ALK tyrosine kinase receptor (Homo sapiens, UniProt Q9UM73); assay type: cell-based
Target sequence in this assay (Q9UM73 19-1620 limits assumed): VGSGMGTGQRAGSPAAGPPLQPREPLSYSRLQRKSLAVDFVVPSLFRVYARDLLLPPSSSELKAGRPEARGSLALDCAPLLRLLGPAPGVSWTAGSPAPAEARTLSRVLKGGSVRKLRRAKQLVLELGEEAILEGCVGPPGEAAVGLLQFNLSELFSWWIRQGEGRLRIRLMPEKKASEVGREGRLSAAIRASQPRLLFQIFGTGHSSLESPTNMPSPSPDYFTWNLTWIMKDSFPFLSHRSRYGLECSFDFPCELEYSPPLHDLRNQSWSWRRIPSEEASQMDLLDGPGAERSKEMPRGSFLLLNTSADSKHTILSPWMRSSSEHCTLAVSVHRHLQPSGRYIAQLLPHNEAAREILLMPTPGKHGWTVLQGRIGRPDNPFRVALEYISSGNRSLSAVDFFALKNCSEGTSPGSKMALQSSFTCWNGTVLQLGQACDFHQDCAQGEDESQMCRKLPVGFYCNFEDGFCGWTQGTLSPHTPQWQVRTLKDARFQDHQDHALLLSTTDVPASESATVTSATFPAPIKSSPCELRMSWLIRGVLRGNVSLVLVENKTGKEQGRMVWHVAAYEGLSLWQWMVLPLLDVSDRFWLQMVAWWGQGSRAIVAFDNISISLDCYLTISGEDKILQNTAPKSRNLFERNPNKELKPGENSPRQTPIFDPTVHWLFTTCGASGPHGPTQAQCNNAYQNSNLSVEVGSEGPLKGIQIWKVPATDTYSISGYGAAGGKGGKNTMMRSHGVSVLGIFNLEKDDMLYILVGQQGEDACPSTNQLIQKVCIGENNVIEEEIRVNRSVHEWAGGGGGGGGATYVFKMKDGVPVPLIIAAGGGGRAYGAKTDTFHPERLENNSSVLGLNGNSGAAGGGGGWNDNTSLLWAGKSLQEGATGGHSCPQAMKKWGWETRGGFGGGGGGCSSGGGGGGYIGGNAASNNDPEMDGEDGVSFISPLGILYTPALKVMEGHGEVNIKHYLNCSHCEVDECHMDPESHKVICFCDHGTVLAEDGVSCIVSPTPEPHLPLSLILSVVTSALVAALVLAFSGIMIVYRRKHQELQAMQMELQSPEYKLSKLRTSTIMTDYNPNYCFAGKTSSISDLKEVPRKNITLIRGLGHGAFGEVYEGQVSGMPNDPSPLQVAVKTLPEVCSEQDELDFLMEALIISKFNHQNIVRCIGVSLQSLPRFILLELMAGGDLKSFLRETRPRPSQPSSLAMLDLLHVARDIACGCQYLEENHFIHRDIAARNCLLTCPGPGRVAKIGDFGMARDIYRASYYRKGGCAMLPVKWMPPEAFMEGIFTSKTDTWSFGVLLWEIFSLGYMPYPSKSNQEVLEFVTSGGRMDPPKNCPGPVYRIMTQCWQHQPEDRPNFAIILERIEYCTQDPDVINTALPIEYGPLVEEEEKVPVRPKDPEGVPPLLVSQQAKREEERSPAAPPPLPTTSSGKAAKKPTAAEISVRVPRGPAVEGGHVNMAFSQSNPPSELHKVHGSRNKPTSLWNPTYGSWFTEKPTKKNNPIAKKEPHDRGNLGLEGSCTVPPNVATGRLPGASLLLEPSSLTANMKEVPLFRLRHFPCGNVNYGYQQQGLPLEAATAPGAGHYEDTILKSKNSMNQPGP
Description: Inhibition of NPM-fused ALK phosphorylation (unknown origin) expressed in human karpas 299 cells after 90 mins by Sandwich-ELISA

[7] = target: T1, ALK tyrosine kinase receptor; assay: Inhibition of human ALK (unknown origin) using poly[Glu:Tyr] as substrate by nanoliter kinase assay
Target sequence in this assay (Q9UM73 whole entry): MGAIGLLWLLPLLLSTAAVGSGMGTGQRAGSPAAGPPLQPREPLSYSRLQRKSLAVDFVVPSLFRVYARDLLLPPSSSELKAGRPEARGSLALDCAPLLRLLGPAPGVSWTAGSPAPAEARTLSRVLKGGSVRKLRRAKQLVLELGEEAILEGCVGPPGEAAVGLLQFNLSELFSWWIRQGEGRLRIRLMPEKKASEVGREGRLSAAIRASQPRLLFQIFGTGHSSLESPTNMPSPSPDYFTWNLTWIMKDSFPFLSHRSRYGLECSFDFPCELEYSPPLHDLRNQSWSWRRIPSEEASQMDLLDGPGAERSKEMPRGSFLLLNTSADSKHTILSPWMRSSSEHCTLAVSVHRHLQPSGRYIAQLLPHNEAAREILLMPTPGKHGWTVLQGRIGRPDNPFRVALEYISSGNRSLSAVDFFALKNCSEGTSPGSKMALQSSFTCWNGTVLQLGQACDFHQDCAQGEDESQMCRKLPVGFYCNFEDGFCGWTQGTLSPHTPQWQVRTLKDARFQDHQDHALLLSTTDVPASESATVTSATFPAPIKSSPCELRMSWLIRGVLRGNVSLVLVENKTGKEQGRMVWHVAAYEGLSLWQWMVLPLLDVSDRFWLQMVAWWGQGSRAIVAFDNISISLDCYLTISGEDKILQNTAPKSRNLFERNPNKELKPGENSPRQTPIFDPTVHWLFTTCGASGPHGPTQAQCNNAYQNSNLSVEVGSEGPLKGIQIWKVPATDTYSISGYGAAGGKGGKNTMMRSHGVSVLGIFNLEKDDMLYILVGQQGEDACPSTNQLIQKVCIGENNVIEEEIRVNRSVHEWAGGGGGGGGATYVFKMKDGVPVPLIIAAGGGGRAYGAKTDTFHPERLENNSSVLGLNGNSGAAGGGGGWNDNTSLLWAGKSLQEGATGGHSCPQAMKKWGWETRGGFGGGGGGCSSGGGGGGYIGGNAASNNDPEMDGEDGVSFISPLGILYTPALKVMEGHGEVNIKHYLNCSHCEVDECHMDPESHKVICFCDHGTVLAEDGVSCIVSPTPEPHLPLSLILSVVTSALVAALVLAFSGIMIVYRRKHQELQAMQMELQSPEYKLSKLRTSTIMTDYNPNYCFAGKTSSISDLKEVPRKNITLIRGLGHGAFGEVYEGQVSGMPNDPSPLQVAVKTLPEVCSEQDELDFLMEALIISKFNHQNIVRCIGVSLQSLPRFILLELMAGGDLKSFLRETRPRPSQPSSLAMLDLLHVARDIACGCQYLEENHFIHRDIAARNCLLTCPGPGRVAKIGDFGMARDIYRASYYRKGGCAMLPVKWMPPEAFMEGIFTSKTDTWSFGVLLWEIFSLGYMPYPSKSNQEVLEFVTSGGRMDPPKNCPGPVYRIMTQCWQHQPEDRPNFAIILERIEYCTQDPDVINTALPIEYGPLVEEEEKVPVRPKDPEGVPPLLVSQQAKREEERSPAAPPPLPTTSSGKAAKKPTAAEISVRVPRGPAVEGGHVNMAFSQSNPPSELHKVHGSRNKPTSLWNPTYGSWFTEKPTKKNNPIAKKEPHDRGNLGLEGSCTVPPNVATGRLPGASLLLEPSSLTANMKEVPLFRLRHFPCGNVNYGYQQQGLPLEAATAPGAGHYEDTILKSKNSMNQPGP

Mus musculus [8] = assay: Toxicity in human GTL16 cells xenografted nu/nu mouse model assessed as change in body weight at 20 mg/kg, po qd for 14 days; assay type: organism-based; design: dose 20 mg/kg, route oral; settings: in vivo, 336 h
[9] = Oral bioavailability in BALB/c mouse at 20 mg/kg; assay type: ADME, organism-based; settings: in vivo
[10] = AUC (0 to infinity) in BALB/c mouse at 20 mg/kg, po; assay type: ADME, organism-based; design: time infinity, dose 20 mg/kg, route oral; settings: plasma
cells [11] = settings: Homo sapiens, U-87 MG, 48 h
Description: Antiproliferative activity against human U87MG cells after 48 hrs by MTT assay

cells [12] = settings: Homo sapiens, NCI-H441, 48 h
Description: Antiproliferative activity against human H441 cells after 48 hrs by MTT assay

NCI-H1993 = assay: cells; settings: Homo sapiens, NCI-H1993, 48 h
Description: Antiproliferative activity against human NCI-H1993 cells after 48 hrs by MTT assay

cells [13] = settings: Homo sapiens, GTL 16, 48 h
Description: Antiproliferative activity against human GTL16 cells after 48 hrs by MTT assay

animal or person [14] = settings: Homo sapiens, GTL 16, po, 336 h, read-out: TGI
Description: Antitumor activity against human GTL16 cells xenografted in nu/nu mouse assessed as tumor growth inhibition at 40 mg/kg, po qd for 14 days

animal or person [15] = settings: Homo sapiens, GTL 16, po, 336 h, read-out: TGI; remark: listed apart in the source
Description: Antitumor activity against human GTL16 cells xenografted in nu/nu mouse assessed as tumor growth inhibition at 20 mg/kg, po qd for 14 days

Chain of Hepatocyte growth factor receptor (P08581 whole entry): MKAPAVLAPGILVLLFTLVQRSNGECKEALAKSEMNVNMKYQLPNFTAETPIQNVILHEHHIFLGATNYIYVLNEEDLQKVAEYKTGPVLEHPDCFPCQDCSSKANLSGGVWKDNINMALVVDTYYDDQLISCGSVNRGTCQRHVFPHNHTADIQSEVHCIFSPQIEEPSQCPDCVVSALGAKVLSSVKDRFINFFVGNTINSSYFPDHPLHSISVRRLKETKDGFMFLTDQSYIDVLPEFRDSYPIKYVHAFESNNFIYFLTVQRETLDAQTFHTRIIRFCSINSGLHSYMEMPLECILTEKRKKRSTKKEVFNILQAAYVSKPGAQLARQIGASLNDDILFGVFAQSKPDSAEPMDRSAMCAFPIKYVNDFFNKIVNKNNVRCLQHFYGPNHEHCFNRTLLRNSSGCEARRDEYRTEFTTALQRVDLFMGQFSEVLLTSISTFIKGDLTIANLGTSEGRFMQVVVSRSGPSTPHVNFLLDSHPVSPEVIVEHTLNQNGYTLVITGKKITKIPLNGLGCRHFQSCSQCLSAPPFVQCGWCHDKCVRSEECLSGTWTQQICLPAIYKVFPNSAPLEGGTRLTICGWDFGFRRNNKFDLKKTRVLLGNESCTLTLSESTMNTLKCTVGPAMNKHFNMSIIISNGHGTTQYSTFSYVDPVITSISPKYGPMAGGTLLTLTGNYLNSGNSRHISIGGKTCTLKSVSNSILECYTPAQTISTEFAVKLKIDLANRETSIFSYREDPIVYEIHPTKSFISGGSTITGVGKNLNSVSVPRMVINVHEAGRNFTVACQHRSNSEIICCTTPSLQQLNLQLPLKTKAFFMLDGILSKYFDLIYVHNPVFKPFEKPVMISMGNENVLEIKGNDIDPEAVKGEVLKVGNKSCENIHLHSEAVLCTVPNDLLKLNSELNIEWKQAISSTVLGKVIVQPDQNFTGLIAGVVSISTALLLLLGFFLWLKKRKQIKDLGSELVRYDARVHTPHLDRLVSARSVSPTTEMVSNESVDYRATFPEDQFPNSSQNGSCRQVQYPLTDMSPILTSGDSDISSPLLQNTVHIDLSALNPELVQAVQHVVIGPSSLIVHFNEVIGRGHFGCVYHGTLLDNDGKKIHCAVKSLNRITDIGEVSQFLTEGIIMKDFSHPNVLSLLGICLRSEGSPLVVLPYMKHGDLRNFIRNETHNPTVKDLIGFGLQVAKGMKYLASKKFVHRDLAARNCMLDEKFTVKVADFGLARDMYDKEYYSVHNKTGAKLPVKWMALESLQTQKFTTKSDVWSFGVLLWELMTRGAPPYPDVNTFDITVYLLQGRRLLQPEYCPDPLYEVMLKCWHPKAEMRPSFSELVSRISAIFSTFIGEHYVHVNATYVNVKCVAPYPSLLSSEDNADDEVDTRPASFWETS

Row | SMILES | IC50 [1] | Cmax [2] | F (Mus musculus [3]) | AUC(0-inf) [4] | Cmax [5] | IC50 [6] | IC50 [7] | Activity (Mus musculus [8]) | bioavailability [9] | AUC(0-inf) [10] | IC50 (cells [11]) | IC50 (cells [12]) | IC50 (NCI-H1993) | IC50 (cells [13]) | inhibition in vivo at 40 mg/kg (animal or person [14]) | inhibition in vivo at 20 mg/kg (animal or person [15])
1 | CN1CCC2(CC1)C(=O)Nc1ccc(-c3cnc(N)c(OCc4c(Cl)ccc(F)c4Cl)c3)cc12 | > 10000 nM | – | – | – | – | – | – | – | – | – | – | – | – | – | – | –
2 | C[C@@H](Oc1cc(-c2ccc3c(c2)NC(=O)C32CCN(C)CC2)cnc1N)c1c(Cl)ccc(F)c1Cl | – | 1450 nM | 100% | 1230 ng·h/mL | 1360 nM | 39 nM | < 0.5 nM | Non-toxic | 48% | 2350 ng·h/mL | > 10000 nM | 2820 nM | 1580 nM | 20 nM | 87% | 52%
